Laboratory results: patent US12391679B2, “Benzamide-substituted bicyclic imidazo- and pyrazolo-fused -pyridine, -pyrimide, and -pyridazine compounds for treatment of inflammatory diseases” (ONCO3R Therapeutics BV, priority 2019, dated 2025)
Where two headings read alike, the source gives them in different places.

Key:
[1] = test system: LPS-induced TNFα in monocytes; test: Monocytes assay: LPS-triggered TNFα (ELISA); type: cell-based, human; settings: LPS-triggered TNFα inhibition
How it was run: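 TNFα secretion was triggered with 200 ng/mL LPS for 4 h in human blood CD14+ monocytes after 1 h compound pretreatment at 37 °C, with 0.2% final DMSO. Supernatants were analysed by streptavidin-HRP/luminol ELISA, and percentage inhibition at each concentration was derived relative to control wells.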

SIK3 = biological target: T1, SIK3 (Homo sapiens, UniProt Q9Y2K2); test: ADP-Glo kinase assay, SIK3; type: biochemical
T1 construct: purchased SignalChem S12-11G-100
How it was run: (§1)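 Steps: add enzyme–substrate mixture; start with diluted ATP; incubate RT 120 min; add ADP-Glo Reagent to terminate and remove unconsumed ATP, 40 min; add detection reagent, 30 min; read luminescence. DMSO at 1% and staurosporine at 10 μM (final) define assay windows.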

SIK1 = biological target: T2, SIK1 (Homo sapiens, UniProt P57059); test: ADP-Glo kinase assay, SIK1; type: biochemical
T2 construct: purchased Carna Biosciences 02-131
How it was run: as §1

[2] = test system: LPS triggered IL-10 secretion in monocytes; test: Monocytes assay: LPS-triggered IL-10 (ELISA); type: cell-based, human; settings: LPS-triggered IL-10 induction, median maximal fold change vs LPS only; for maximal fold induction: Homo sapiens, Monocyte, read-out: IL-10 FCmax median
Protocol: This assay evaluates illustrative compounds of the invention for their inhibition of LPS-induced TNFα and LPS triggered IL-10 secretion in monocytes.
PBMCs are isolated from human blood samples (buffycoats). The buffy coat is aseptically transferred into a 50 mL Falcon tube, and diluted 1/2 in PBS. Falcon tubes are filled with 20 mL Lymphoprep™, on top of which 25 mL of the buffy coat is carefully added, tubes are centrifuged for 35 min at 400 g in temperature controlled centrifuge, without brake, at 25° C. PBMCs are aspirated from the white interface layer between sample and Lymphoprep™. PBMCs are washed five times in PBS.
PBMCs are centrifuged at 300×g for 10 min and resuspended at a density of 1.0*10^7 cells/80 μL Miltenyi buffer (PBS, pH 7.4, 1% FBS, 2 mM EDTA).
Starting from this point of the protocol all steps are performed on ice. 20 μL of CD14+ micro-beads are added per 1.0*10^7 cells, the tube is mixed and incubated for 15 min in the fridge at 4° C. Cell suspension volume is adjusted to total volume of 100 mL using Miltenyi buffer, mixed gently and subsequently centrifuged for 10 min at 300×g. Supernatant is discarded and cell pellet is resuspended in 12 mL of Miltenyi buffer.
Four LS columns are placed in the MACS Separator (magnet) from Miltenyi Biotec, and are prewet by rinsing with 3 mL of MACS buffer per column. Three mL of cell suspension is added onto the column (max 1*10^8 of labelled cells/column), and columns are subsequently washed 3 times with 3 mL of Miltenyi buffer.
The columns are removed from the magnets, and 5 mL of Miltenyi buffer are added to the column to flush out the CD14+ fraction by pushing the plunger into the column. The flushed fractions are collected in a fresh 50 mL Falcon and volume is adjusted to 30 mL using Miltenyi buffer, cells are centrifuged for 10 min at 300×g. The obtained cell pellet is resuspended in 10 mL RPMI w/o FBS, and cell density is determined using a hematologic analyser (Sysmex XS-500i).
A compound dilution plate is made in 100% DMSO by 3-fold dilution of 10 mM stock solution. An intermediate dilution plate (10× final concentration) is made by diluting the compound dilution plate 50-fold in RPMI medium.
10 μL of the 10× final concentration compound is added to the cells and incubated for 1 h at 37° C. before addition of trigger. No trigger conditions/trigger conditions are spiked with equal final DMSO concentrations of 0.2% DMSO. 10 μL of 10×LPS (final conc. 200 ng/mL) solution are added to all wells except for the ‘no trigger wells’ where 10 μL medium is added. Supernatant is collected after 4 h of LPS triggering.
A Lumitrac 600 Greiner 384-well plate is coated with 40 μL of capture antibody (final concentration of 1 μg/mL in 1×PBS) and stored overnight at 4° C. The next day the plate is washed three times with PBST (PBS+0.05% Tween20) and once with PBS followed by the addition of 100 μL of blocking buffer (1% BSA-5% Sucrose) and plates are sealed and incubated for at least 4 h at RT. After washing the plate once with PBST and once with PBS, 40 μL of standard or sample are added (IL-10 standard curve is prepared using a 1/2 serial dilution starting from 2000 pg/mL; dilutions are made in dilution buffer (PBS+1% BSA)). […] Plates are washed twice with PBST, and once with PBS, whereafter 35 μL of Strep-HRP conjugate (0.5 μg/mL final concentration diluted in dilution buffer) is added. Plates are incubated in the dark, at RT for at least 45 min but no longer than 1 h. Plates are washed twice with PBST, and once with PBS. Thereafter, 50 μL of luminol substrate is added to each well (prepared according to manufacturer's instructions), and incubated for 5 min at RT protected from light.
To quantify these increases, fold changes (FC) compared to ‘LPS only’ are calculated for each concentration tested and the maximal FC is calculated (IL-10 FCmax): […]

[3] = ADP-Glo, AMARA 45 μM, 5 μM ATP, 120 min, average IC50

T2 sequence (P57059 whole entry): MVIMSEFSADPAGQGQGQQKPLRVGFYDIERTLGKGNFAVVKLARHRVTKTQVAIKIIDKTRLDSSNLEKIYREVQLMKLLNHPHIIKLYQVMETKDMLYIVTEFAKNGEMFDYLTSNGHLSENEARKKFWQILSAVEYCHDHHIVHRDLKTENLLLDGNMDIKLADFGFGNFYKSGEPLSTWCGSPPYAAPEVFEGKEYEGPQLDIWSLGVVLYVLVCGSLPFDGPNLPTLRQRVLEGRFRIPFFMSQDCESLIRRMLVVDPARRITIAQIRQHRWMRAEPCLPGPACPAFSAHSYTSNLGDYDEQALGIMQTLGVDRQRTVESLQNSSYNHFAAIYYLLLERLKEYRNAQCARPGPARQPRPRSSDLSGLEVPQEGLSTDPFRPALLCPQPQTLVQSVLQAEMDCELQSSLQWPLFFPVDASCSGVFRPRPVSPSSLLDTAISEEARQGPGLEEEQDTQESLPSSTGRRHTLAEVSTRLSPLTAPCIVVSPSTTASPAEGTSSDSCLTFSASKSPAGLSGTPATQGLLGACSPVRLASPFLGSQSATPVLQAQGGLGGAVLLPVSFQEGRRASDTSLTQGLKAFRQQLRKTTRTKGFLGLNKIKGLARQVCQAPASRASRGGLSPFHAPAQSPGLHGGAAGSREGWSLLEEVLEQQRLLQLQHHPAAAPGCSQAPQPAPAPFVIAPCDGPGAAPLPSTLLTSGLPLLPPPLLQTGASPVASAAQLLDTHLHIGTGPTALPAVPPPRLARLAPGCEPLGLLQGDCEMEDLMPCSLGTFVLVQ
T1 sequence (Q9Y2K2 59-365 limits assumed): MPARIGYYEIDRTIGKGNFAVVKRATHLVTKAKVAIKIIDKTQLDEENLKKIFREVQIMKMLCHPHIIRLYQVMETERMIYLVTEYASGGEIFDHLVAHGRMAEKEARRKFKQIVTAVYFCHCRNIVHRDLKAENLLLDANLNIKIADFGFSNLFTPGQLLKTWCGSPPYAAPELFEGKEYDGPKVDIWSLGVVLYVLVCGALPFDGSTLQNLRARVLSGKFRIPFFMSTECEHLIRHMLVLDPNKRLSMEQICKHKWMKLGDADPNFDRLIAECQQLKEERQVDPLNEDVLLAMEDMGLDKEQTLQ

| Compound | EC50 [1] [nM] | IC50 (SIK3) [nM] | IC50 (SIK1) [nM] | IC50 (SIK3; [3]) [nM] | IC50 (SIK1; [3]) [nM] | EC50 ([1]; Homo sapiens, Monocyte) [nM] | maximal fold induction [2] | IL-10 FCmax median [2] |
| --- | --- | --- | --- | --- | --- | --- | --- | --- |
| COc1cc(-c2cnn3cc(C(C)(C)C#N)ccc23)cc(OC(F)F)c1C(=O)N[C@@H]1C[C@H]1F (single isomer, unassigned) [Cpd 257, 4-[6-(1-cyano-1-methyl-ethyl)pyrazolo[1,5-a]pyridin-3-yl]-2-(difluoromethoxy)-N-(2-fluorocyclopropyl)-6-methoxy-benzamide] | – | – | – | – | – | 100 to 1000 | 1.5 to 4.5 | – |
| COc1cc(-c2cnn3cc(C(C)(C)C#N)ccc23)cc(OC(F)F)c1C(=O)N[C@@H]1C[C@H]1F (single isomer, unassigned) [Cpd 258, 4-[6-(1-cyano-1-methyl-ethyl)pyrazolo[1,5-a]pyridin-3-yl]-2-(difluoromethoxy)-N-(2-fluorocyclopropyl)-6-methoxy-benzamide] | 100 to 1000 | – | – | – | – | – | – | + (+ ≤1.5) |
| COc1cc(-c2cnc3cc(C(C)(C)C#N)ccn23)cc(OC(F)F)c1C(=O)NC1CC1 [Cpd 19, 4-[7-(1-cyano-1-methyl-ethyl)imidazo[1,2-a]pyridin-3-yl]-N-cyclopropyl-2-(difluoromethoxy)-6-methoxy-benzamide] | – | 0.01 to 10 | > 500 | – | – | 100 to 1000 | < 1.5 | – |
| CCC(C)(C#N)c1ccn2c(-c3cc(OC)c(C(=O)NC4CC4)c(OC(F)F)c3)cnc2c1 (centres unmarked) [Cpd 27, 4-[7-(1-cyano-1-methyl-propyl)imidazo[1,2-a]pyridin-3-yl]-N-cyclopropyl-2-(difluoromethoxy)-6-methoxy-benzamide] | – | 10 to 100 | > 500 | – | – | 100 to 1000 | < 1.5 | – |
| COc1cc(-c2cnc3cc(C(C)(C)O)ccn23)cc(OC(F)F)c1C(=O)NC1CC1 [Cpd 35, N-cyclopropyl-2-(difluoromethoxy)-4-[7-(1-hydroxy-1-methyl-ethyl)imidazo[1,2-a]pyridin-3-yl]-6-methoxy-benzamide] | – | 10 to 100 | > 500 | – | – | 100 to 1000 | 1.5 to 4.5 | – |
| COc1cc(-c2cnc3cc(C(C)(C)C#N)ccn23)cc(OC(F)F)c1C(=O)NCC1CC1 [Cpd 39, 4-[7-(1-cyano-1-methyl-ethyl)imidazo[1,2-a]pyridin-3-yl]-N-(cyclopropylmethyl)-2-(difluoromethoxy)-6-methoxy-benzamide] | – | 0.01 to 10 | > 500 | – | – | 100 to 1000 | 1.5 to 4.5 | – |
| COc1cc(-c2cnc3cc(C(C)(C)C#N)ccn23)cc(OC(F)F)c1C(=O)N1CC(C#N)C1 [Cpd 77, 1-[4-[7-(1-cyano-1-methyl-ethyl)imidazo[1,2-a]pyridin-3-yl]-2-(difluoromethoxy)-6-methoxy-benzoyl]azetidine-3-carbonitrile] | – | 0.01 to 10 | > 500 | – | – | 100 to 1000 | 1.5 to 4.5 | – |
| COc1cc(-c2cnn3cc(C(C)(C)C#N)ccc23)cc(OC(F)F)c1C(=O)N[C@@H]1C[C@@H]1F [Cpd 219, 4-[6-(1-cyano-1-methyl-ethyl)pyrazolo[1,5-a]pyridin-3-yl]-2-(difluoromethoxy)-N-[(1R,2S)-2-fluorocyclopropyl]-6-methoxy-benzamide] | – | – | – | – | – | 0.1 to 100 | < 1.5 | – |
| [2H]C([2H])([2H])C(C#N)(c1ccc2c(-c3cc(OC)c(C(=O)N[C@@H]4C[C@@H]4F)c(OC(F)F)c3)cnn2c1)C([2H])([2H])[2H] [Cpd 275, 4-[6-[1-cyano-2,2,2-trideuterio-1-(trideuteriomethyl)ethyl]pyrazolo[1,5-a]pyridin-3-yl]-2-(difluoromethoxy)-N-[(1R,2S)-2-fluorocyclopropyl]-6-methoxy-benzamide] | – | – | – | – | – | 100 to 1000 | 1.5 to 4.5 | – |

Further lines, with some results ahead:

| EC50 [1] [nM] | IC50 (SIK3) [nM] | IC50 (SIK1) [nM] | IC50 (SIK3; [3]) [nM] | IC50 (SIK1; [3]) [nM] | EC50 ([1]; Homo sapiens, Monocyte) [nM] | Compound | maximal fold induction [2] | IL-10 FCmax median [2] |
| --- | --- | --- | --- | --- | --- | --- | --- | --- |
| 100 to 1000 | 10 to 100 | > 500 | – | – | – | COc1cc(-c2cnc3cc([C@@](C)(C#N)CO)ccn23)cc(OC(F)F)c1C(=O)NC1CC1 (single isomer, unassigned) [Cpd 189, 4-[7-(1-cyano-2-hydroxy-1-methyl-ethyl)imidazo[1,2-a]pyridin-3-yl]-N-cyclopropyl-2-(difluoromethoxy)-6-methoxy-benzamide] | < 1.5 | – |
| 1000 to 5000 | – | – | 10 to 100 | > 500 | – | COc1cc(-c2cnc3cc([C@@](C)(C#N)CO)ccn23)cc(OC(F)F)c1C(=O)NC1CC1 (single isomer, unassigned) [Cpd 190, 4-[7-(1-cyano-2-hydroxy-1-methyl-ethyl)imidazo[1,2-a]pyridin-3-yl]-N-cyclopropyl-2-(difluoromethoxy)-6-methoxy-benzamide] | – | + (+ ≤1.5) |
| – | 0.01 to 10 | > 500 | – | – | 0.1 to 100 | COc1cc(-c2cnc3cc(C(C)(C)C#N)ccn23)cc(OC(F)F)c1C(=O)N[C@@H]1C[C@@H]1F [Cpd 79, 4-[7-(1-cyano-1-methyl-ethyl)imidazo[1,2-a]pyridin-3-yl]-2-(difluoromethoxy)-N-[(1R,2S)-2-fluorocyclopropyl]-6-methoxy-benzamide] | 1.5 to 4.5 | – |
| – | 0.01 to 10 | > 500 | – | – | 100 to 1000 | COc1cc(-c2cnc3cc(C4(C#N)CCOCC4)ccn23)cc(OC)c1C(=O)NCC(F)(F)F [Cpd 107, 4-[7-(4-cyanotetrahydropyran-4-yl)imidazo[1,2-a]pyridin-3-yl]-2,6-dimethoxy-N-(2,2,2-trifluoroethyl)benzamide] | 1.5 to 4.5 | – |
| – | 0.01 to 10 | > 500 | – | – | 100 to 1000 | COc1cc(-c2cnc3cc(C4(C#N)CCOCC4)ccn23)cc(OC(F)F)c1C(=O)NC1CC1 [Cpd 116, 4-[7-(4-cyanotetrahydropyran-4-yl)imidazo[1,2-a]pyridin-3-yl]-N-cyclopropyl-2-(difluoromethoxy)-6-methoxy-benzamide] | 1.5 to 4.5 | – |
| – | 0.01 to 10 | > 500 | – | – | 100 to 1000 | COc1cc(-c2cnc3cc(C4(C#N)COC4)ccn23)cc(OC(F)F)c1C(=O)NC1CC1 [Cpd 117, 4-[7-(3-cyanooxetan-3-yl)imidazo[1,2-a]pyridin-3-yl]-N-cyclopropyl-2-(difluoromethoxy)-6-methoxy-benzamide] | 1.5 to 4.5 | – |
| – | 10 to 100 | > 500 | – | – | 100 to 1000 | COc1cc(-c2cnc3cc(C4(C#N)CCOC4)ccn23)cc(OC(F)F)c1C(=O)NC1CC1 (centres unmarked) [Cpd 123, 4-[7-(3-cyanotetrahydrofuran-3-yl)imidazo[1,2-a]pyridin-3-yl]-N-cyclopropyl-2-(difluoromethoxy)-6-methoxy-benzamide] | 1.5 to 4.5 | – |
